Reference: patent US12642771B2, “Compositions comprising PGI2-receptor agonists and processes for the preparation thereof” (Arena Pharmaceuticals, Inc., priority 2017, dated 2026)

Experiment: Release (dissolution) profile of modified-release tablets, USP Apparatus 1 (baskets) at 100 rpm, 500 mL aqueous sodium phosphate 0.05 M, pH 6.8
Type: physicochemical
Source text: USP Apparatus 1 (BASKETS) is described, for example, in the United States Pharmacopeial Convention, Feb. 1, 2012, Chapter <711> (“Dissolution”), incorporated by reference herein in its entirety. See http://www.usp.org/sites/default/files/usp_pdf/EN/USPNF/revisions/m99470-gc_711.pdf. The USP Apparatus 1 (baskets) assembly consists of the following: a vessel, which may be covered, made of glass or other inert, transparent material; a motor; a metallic drive shaft, and a cylindrical basket. The materials should not sorb, react, or interfere with the specimen being tested. The vessel is partially immersed in a suitable water bath of any convenient size or heated by a suitable device such as a heating jacket. The water bath or heating device permits holding the temperature inside the vessel at 37±0.5° during the test and keeping the bath fluid in constant, smooth motion. No part of the assembly, including the environment in which the assembly is placed, contributes significant motion, agitation, or vibration beyond that due to the smoothly rotating stirring element. An apparatus that permits observation of the specimen and stirring element during the test is preferable. The vessel is cylindrical, with a hemispherical bottom and with one of the following dimensions and capacities: for a nominal capacity of 1 L, the height is 160 mm to 210 mm and its inside diameter is 98 mm to 106 mm; for a nominal capacity of 2 L, the height is 280 mm to 300 mm and its inside diameter is 98 mm to 106 mm; and for a nominal capacity of 4 L, the height is 280 mm to 300 mm and its inside diameter is 145 mm to 155 mm. Its sides are flanged at the top. A fitted cover may be used to retard evaporation. If a cover is used, it provides sufficient openings to allow ready insertion of the thermometer and withdrawal of specimens. The shaft is positioned so that its axis is not more than 2 mm at any point from the vertical axis of the vessel and rotates smoothly and without significant wobble that could affect the results. The vertical center line of the blade passes through the axis of the shaft so that the bottom of the blade is flush with the bottom of the shaft. A distance of 25±2 mm between the bottom of the blade and the inside bottom of the vessel is maintained during the test. The metallic or suitably inert, rigid blade and shaft comprise a single entity. A suitable two-part detachable design may be used provided the assembly remains firmly engaged during the test. […]
The release profiles for modified-release tablets were measured using USP Apparatus 1 (baskets).
All release profiles disclosed in Tables 6a-6d were measured with USP Apparatus 1 (baskets) at 100 rpm in 500 mL of aqueous sodium phosphate at a concentration of 0.05 M (pH=6.8). […]

- difference of % by weight released, initial profile vs after storage (tablets 0.05 mg and 0.5 mg Compound 1 (FIGS. 12, 13), storage at 40° C. and 75% RH for six months, any time point equal to or greater than 2 hours): ≤ 10%
SMILES: O=C(O)COC[C@H]1CC[C@H](COC(=O)N(c2ccccc2)c2ccc(Cl)cc2)CC1 [Compound 1, 2-(((1r,4r)-4-(((4-chlorophenyl)(phenyl)carbamoyloxy)methyl)cyclohexyl)methoxy)acetic acid]
- release rate relative to modified-release capsule (tablets 0.5 mg Compound 1 with 40% HPMC K4M CR, 100 mg, 7 kP): faster than that of the modified-release capsule
- release rate relative to modified-release capsule (tablets with 30% HPMC K4M and 20% HPMC K100 LVCR, wet granulation): slightly faster than that of the modified-release capsule
- release rate relative to modified-release capsule (tablets with 40% HPMC K4M and 10% HPMC K100 LVCR, wet granulation): faster than that of the modified-release capsule at time points <6 hrs but slower than that of the modified-release capsule at time points 6 hrs
